The IC50 is the concentration at which inhibition is half-maximal.

SMILES strings stand for the structures. “Also recorded” adds a separate entry of the source. Where two headings read alike, the source gives them in different places.

The target in assay [1] is T1, ERβ (Homo sapiens, UniProt Q92731).
T1 construct: expressed in transfected cells; host or cells: U2OS
The experiment in a line: ERE-tk luciferase transfection assay, U2OS cells cotransfected with ERβ. The assay is classed as cell-based.

Assay [2] relates to U2OS-ERα cells. The experiment in a line: Real-time PCR of unique genes FGR, KCNK6, KRT73 in U2OS-ERα cells. Type of assay: cell-based, human. The settings on record: E2 in combination with 5 μM 2′,3′,4′-THC, 24 hrs. How it is done:
Expression was assessed by up regulation or down regulation of 3-fold or more and a P-value≤0.05. […] Error bars are ±SEM.
(FIGS. 6a, 6b) Gene expression of (FIG. 6a) KRT73 and (FIG. 6b) NKG2E in U2OS-ERα cells treated with 10 nM estradiol, 5 μM 2′, 3′, 4′-THC, 1μM ICI alone or in combination for 24 hours. […] Error bars are ±SEM. […] After transfection, luciferase activities were measured as described in the Methods. RLU is relative light units and the data shown are mean ±SEM. (FIG. 6c). […] After transfection, luciferase activities were measured as described in the Methods. RLU is relative light units and the data shown are mean ±SEM (FIG. 6d).

The subject of assay [3] is NKG2E promoter. The experiment in a line: ChIP of ERα and SRC-2 at the NKG2E promoter in U2OS-ERα cells. The assay is classed as cell-based, human. The note with it: 2′,3′,4′-THC/E2 combination, 2 hr. How it is done:
Cells were fixed with 11X formaldehyde solution for 10 minutes at 37° C. and the reaction was quenched for 2 minutes with 1.25M glycine solution as previously described (Cvoro, A., et al. Distinct Roles of Unliganded and Liganded Estrogen Receptors in Transcriptional Repression. Mol Cell 21, 555-564 (2006)). Cells were washed and collected in collecting buffer (100 mM Tris-HCl pH 9.4 and 10 mM dithiothreitol (DTT)) supplemented with a protease inhibitor cocktail. Pellets were frozen overnight at −80° C. then were thawed on ice and lysed (50 mM Tris pH 7.4, 150 mM NaCl, 10 mM ethylenediaminetetraacetic acid (EDTA), 0.5 mM ethylene glycol tetraacetic acid (EGTA), 0.5% Triton™ X-100 and 1X protease inhibitor cocktail). Cell lysates were centrifuged and cell pellet was resuspended in RIPA buffer. Samples were sonicated and supernatant was collected. Approximately 5% of each sample was taken for input and stored at 4° C. Immune complexes were collected using magnetic sepharose beads (GE Healthcare, Pittsburgh, Pa.) equilibrated in radioimmunoprecipitation assay (RIPA) buffer. Complexes were collected over a period of 3 to 4 hours rotating at 4° C. […]
FIGS. 2a-2f2′, 3′, 4′-THC behaves as a unique coagonist on gene expression in U2OS-ERα cells. […] Expression was assessed by up regulation or down regulation of 3-fold or more and a P-value≤0.05. […]

Assay [4] has as its target T2, ERα LBD (Homo sapiens, UniProt P03372).
T2 construct: Purified ERα LBD containing amino acids 315-545 used by Brzozowski et al; histidine-tag; purchased GenScript
T2 sequence (P03372 315-545): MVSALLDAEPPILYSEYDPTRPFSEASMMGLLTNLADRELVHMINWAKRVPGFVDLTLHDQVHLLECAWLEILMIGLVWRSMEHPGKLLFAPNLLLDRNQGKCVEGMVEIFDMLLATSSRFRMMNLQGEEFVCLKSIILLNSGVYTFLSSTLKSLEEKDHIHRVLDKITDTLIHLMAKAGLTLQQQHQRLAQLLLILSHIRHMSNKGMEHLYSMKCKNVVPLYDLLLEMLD
Type of assay: binding. The settings on record: 5 μM 2′,3′,4′-THC alone.

Assay [5] relates to MCF-7 cells. Kind of assay: Flow cytometry of cellular DNA content in MCF-7 cells. The settings on record: for IC50: Homo sapiens, MCF7, 24 h. The assay is classed as cell-based, human. How it is done: The cells were then washed with PBS, detached with trypsin and collected by centrifugation. The cell pellets were washed with cold PBS followed by centrifuge at room temperature and re-suspended in 500 μl PBS containing […] propidium iodide, 0.1% of Triton™ X-100, 0.1% of sodium citrate, and 10 μg/ml of RNase. Samples were then run on Cytomics™ FC-500 (Beckman Coulter) in the cell cytometry facility at UC Berkeley and data was analyzed using FlowJo 7.6.5.
(In flow cytometry, cells or beads pass a laser one at a time.)

Assay [6] concerns the target T3, ERα (Homo sapiens, UniProt P03372). The experiment in a line: ERE-tk luciferase transfection assay, U2OS cells cotransfected with ERα. The assay is classed as cell-based. The arrangement: expressed in transfected cells; host or cells: U2OS. How it is done: (FIG. 1a) Chemical structure of 2′, 3′, 4′-THC. (FIG. 1b) U2OS cells cotransfected with ERE tk-luciferase and ERα (left panel) or ERβ (right panel). After transfection the cells were treated for 24 hours with 10 nM estradiol and 5 μM 2′, 3′, 4′-THC alone or in combination. Cells were lysed and luciferase activity was measured. RLU is relative light units. Error bars are the Mean±SEM. **P≤0.01. […] The total cellular RNA was extracted and real-time PCR for KRT19 mRNA was performed as described in Materials and Methods. […] Error bars are ±SEM. *P≤0.05, **** P≤0.0001.

The target in assay [7] is T3, ERα. Kind of assay: Competitive [3H]-E2 binding in U2OS-ERα cells. The arrangement: expressed in transfected cells; host or cells: U2OS.
Assay [8] concerns c-MYC. Kind of assay: c-MYC mRNA (real-time PCR) and protein (Western blot) in MCF-7 cells. The note with it: greater than tamoxifen.

T3 sequence (P03372 whole entry): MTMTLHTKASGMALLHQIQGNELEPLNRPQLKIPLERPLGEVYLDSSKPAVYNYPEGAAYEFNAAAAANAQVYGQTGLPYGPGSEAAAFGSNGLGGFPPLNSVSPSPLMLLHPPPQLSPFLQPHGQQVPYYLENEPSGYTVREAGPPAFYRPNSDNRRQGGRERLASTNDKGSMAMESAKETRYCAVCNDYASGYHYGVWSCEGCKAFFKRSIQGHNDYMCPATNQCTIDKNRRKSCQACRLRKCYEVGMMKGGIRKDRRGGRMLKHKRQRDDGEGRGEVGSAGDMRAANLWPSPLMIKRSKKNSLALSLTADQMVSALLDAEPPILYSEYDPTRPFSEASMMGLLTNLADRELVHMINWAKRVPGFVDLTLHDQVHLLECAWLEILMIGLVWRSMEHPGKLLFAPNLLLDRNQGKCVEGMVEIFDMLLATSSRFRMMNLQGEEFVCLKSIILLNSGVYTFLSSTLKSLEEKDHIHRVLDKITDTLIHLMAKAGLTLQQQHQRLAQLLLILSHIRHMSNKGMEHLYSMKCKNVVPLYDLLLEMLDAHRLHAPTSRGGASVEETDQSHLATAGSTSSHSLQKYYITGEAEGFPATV
T1 sequence (Q92731 whole entry): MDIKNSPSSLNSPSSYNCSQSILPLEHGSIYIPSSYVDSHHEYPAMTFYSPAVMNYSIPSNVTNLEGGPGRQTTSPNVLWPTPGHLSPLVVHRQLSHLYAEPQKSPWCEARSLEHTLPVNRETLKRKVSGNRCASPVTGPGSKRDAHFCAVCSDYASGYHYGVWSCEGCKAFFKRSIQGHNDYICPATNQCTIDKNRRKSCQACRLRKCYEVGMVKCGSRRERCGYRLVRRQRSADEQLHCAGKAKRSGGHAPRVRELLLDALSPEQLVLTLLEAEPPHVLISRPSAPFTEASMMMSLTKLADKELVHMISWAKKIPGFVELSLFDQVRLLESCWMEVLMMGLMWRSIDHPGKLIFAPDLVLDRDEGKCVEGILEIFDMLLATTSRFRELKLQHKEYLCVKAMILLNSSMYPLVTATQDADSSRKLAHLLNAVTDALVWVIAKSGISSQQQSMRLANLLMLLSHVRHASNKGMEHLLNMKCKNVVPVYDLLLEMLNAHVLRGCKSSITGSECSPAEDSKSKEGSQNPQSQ

In the case of `O=C(/C=C/c1ccccc1)c1ccc(O)c(O)c1O` [2′, 3′, 4′-THC, 2′, 3′, 4′-trihydroxychalcone], the “luciferase activity with E2” value in assay [1] (ERβ, 5 μM + 10 nM E2, 24 hours) is listed as “synergistic increase”; in assay [6] (ERα, 5 μM chalcone + 10 nM E2, 24 hours), “synergistic increase”. Besides, the “activity on ERE luciferase, compound alone” value in assay [1] (U2OS cells transfected with ERβ, 5 μM, 24 hours) is “inactive”; in assay [6] (U2OS cells transfected with ERα, 5 μM, 24 hours), “inactive”. Also, the “E2 dose at which FGR expression was induced” value in assay [2] stood at 0.1 nM. For the same compound, the “E2 dose at which KCNK6 expression was induced” value in assay [2] stood at 1 nM. For the same compound, the “E2 dose at which KRT73 expression was induced” value in assay [2] came out at 1 nM. In assay [3], the “recruitment of ERα to the NKG2E promoter” value is on record as “increased recruitment”. Besides, in assay [3], the “recruitment of SRC-2 to the NKG2E promoter” value is recorded as “increased recruitment”. The “melting temperature of ERα LBD” value in assay [4] is “no effect”. In addition, the “effect on E2-treated cells by DNA content / cell cycle” value in assay [5] (24 hours) is reported as “anti-proliferative action; also recorded: G1 cell cycle arrest”. In addition, the IC50 stood at 2900 nM in assay [5] (read-out: IC50 for inhibition, G1 phase (cellular DNA content)) and 2600 nM in assay [5] (read-out: IC50 for inhibition, S-phase (cellular DNA content)). In addition, the “competing concentration relative to concentration required for synergy” value in assay [7] was 100 fold. In assay [7] (5 or 10 μM, 5 nM [3H]-E2, 1 h, 37°C), the “increase of [3H]-E2 binding” value is reported as about 2 fold. The “IC50 relative to E2 (higher)” value in assay [7] (U2OS-ERα cells) is “approximately 10,000 fold”. Further, in assay [7] (no competition below, 5 nM [3H]-E2), the “concentration at which the compound competes for [3H]-E2 binding” value stood at 100 µM. Also, the “effect on E2-stimulation of c-MYC mRNA” value in assay [8] (5 μM + 10 nM E2, 4 hours) is on record as “inhibited”. The “effect on E2-stimulation of c-MYC protein levels” value in assay [8] (increasing doses + 10 nM E2, 1 hour) is on record as “inhibited”.

(Values after US20190008797A1, “ESTROGEN RECEPTOR ALPHA COLIGANDS, AND METHODS OF USE THEREOF” (priority 2016, published 2019).)
